These results are taken from US9138438B2, “Method for protecting a retinal neuronal cell” (ASAHI GLASS COMPANY, LIMITED, priority 2005, dated 2015).

In the assay the test system is rat fetal retinal neuronal cells. In words: Glutamate-induced retinal neuronal cell death, trypan blue survival rate. It counts as cell-based. The settings on record: test compound 0.1 nM to 100 nM; 24 hours pre-incubation, 1 mM glutamate 10 minutes, then 1 hour with test compound; survival rate by trypan blue. The protocol: In order to find a new pharmaceutical application of a prostaglandin F2α derivative, by using rat fetal retinal neuronal cells, an effect of a prostaglandin F2α derivative on protecting retinal neuronal cells against glutamate-induced retinal neuronal cell death was evaluated and examined.
Incidentally, as the prostaglandin F2α derivative which is a test compound, 16-phenoxy-15-deoxy-15,15-difluoro-17,18,19,20-tetranor-prostaglandin F2α was used.
A pregnant SD rat was subjected to laparotomy under systemic anesthesia, and the uterus was transferred to a dish containing Hanks's balanced salt solution (HBSS). A rat fetus was isolated from the uterus, and the eyeballs of the rat fetus were taken out. The retina was isolated from the eyeballs under a stereoscopic microscope and cut into pieces with a surgical knife. […] After the cell number was counted with a hemocytometer, an MEM medium containing 10% FBS was added thereto, whereby a cell suspension with a cell density of 0.8×10^6 cells/mL was obtained. […]
At day 10 of culture, the plastic discs in which cells were inoculated and cultured were transferred to the HS-containing MEM medium containing the test compound and incubated for 24 hours (37° C., 5% CO2). […] After the cells were washed with a physiological saline solution, stained cells and unstained cells were counted under an inverted microscope. […]

On to `O=C(O)CCC/C=C\C[C@@H]1[C@@H](/C=C/C(F)(F)COc2ccccc2)[C@H](O)C[C@@H]1O` [test compound, 16-phenoxy-15-deoxy-15,15-difluoro-17,18,19,20-tetranor-prostaglandin F2α], for which the “glutamate-induced retinal neuronal cell death” value is “inhibited in a concentration-dependent manner”.
